[ ]: non-standard residue; d: D form. The star is where a group is joined. pNA = O=[N+]([O-])c1ccc(N*)cc1; Cbz = O=C(OCc1ccccc1)*
The substances below were run against T1, activated protease D-G-6×HIS (Homo sapiens, UniProt Q9NRS4) (assay: Chromogenic (amidolytic) assay, release of pNA from synthetic substrates). Settings: recombinant activated protease D-G-6×HIS; substrate 500 uM; 10 mM TRIS-HCl pH 7.8, 25 mM NaCl, 25 mM imidazole; 37° C., 120 min, 405 nm; N.A. = No Activity.
T1 construct: enterokinase cleavage site from human trypsinogen I (EK) (N, cleaved yes); made in house; host or cells: Sf9 insect cells, baculovirus (pFastBac 1)
T1 sequence (Q9NRS4 205-434 limits assumed): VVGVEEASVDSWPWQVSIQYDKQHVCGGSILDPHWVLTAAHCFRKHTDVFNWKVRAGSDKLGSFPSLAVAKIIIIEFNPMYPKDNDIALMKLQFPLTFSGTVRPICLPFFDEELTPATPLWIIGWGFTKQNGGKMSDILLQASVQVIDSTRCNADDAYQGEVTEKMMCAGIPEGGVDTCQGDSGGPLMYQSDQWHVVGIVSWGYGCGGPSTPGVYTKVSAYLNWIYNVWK
Type: biochemical
Description: Amidolytic activities of the activated serine proteases are monitored by release of para-nitroaniline (pNA) from synthetic substrates that are commercially available (Bachem California Inc., Torrance, […].; American Diagnostica Inc., Greenwich, Conn.; Kabi Pharmacia Hepar Inc., Franklin, Ohio). Assay mixtures contain chromogenic substrates in 500 uM and 10 mM TRIS-HCl (pH 7.8), 25 mM NaCl, and 25 mM imidazole. Release of pNA is measured over 120 min at 37° C. on a micro-plate reader (Molecular Devices, Menlo Park, Calif.) with a 405 nm absorbance filter. The initial reaction rates (Vmax, mOD/min) are determined from plots of absorbance versus time using Softmax (Molecular Devices, Menlo Park, Calif.). The specific activities (nmole pNA produced/min/ug protein) of the activated protease D-G-6×HIS for the various substrates are presented in Table 1.
Table 1—The specific activity (nmole pNA produced/min/ug protein) of recombinant activated protease D-G-6×HIS, determined for the various substrates analyzed, is shown.
For Cbz-Phe-Arg-pNA, the “Specific Activity” value was 0.116 ± 0.006 nmole pNA produced/min/ug protein.
In the case of H-D-LYS(CBO)-Pro-Arg-pNA, the “Specific Activity” value is reported as 0.076 ± 0.008 nmole pNA produced/min/ug protein.
For H-D-Pro-HHT-Arg-pNA, the “Specific Activity” value was 0.046 ± 0.001 nmole pNA produced/min/ug protein.
For H-[dV]-Leu-Arg-pNA, the “Specific Activity” value was 0.025 ± 0.003 nmole pNA produced/min/ug protein.
For H-[dV]-Leu-Lys-pNA, the “Specific Activity” value was 0.034 ± 0.003 nmole pNA produced/min/ug protein.

From US6750034B1, “DNA encoding human serine protease D-G” (Ortho-McNeil Pharmaceutical, Inc., priority 2000, dated 2004)
